Measured values as given in patent US20260262643A1, “HERBICIDAL BENZOXAZINES” (FMC CORPORATION, priority 2022, published 2026).

What was measured:
soybean [1] = experiment: Test A preemergence; type: in vivo, Glycine max
Procedure, shortened: (§1)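 Loam/sand soil; pre-em directed soil spray at planting, post-em spray at 1–2 leaf (2–10 cm). Compound in non-phytotoxic solvent + surfactant. Greenhouse 10 d; visual injury vs untreated, 0 = no effect, 100 = complete control.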

goosegrass [2] = experiment: Test A postemergence; type: in vivo, Eleusine indica; conditions: postemergence, 10 days; for Plant response rating, Goosegrass: visual injury, 0 to 100 scale (0 no effect, 100 complete control)
Procedure, shortened: as §1

kochia [3] = experiment: Test A preemergence; type: in vivo, Bassia scoparia
Procedure, shortened: as §1

goosegrass [4] = experiment: Test A preemergence; type: in vivo, Eleusine indica
Procedure, shortened: as §1

ryegrass, Italian [5] = experiment: Test A preemergence; type: in vivo, Lolium multiflorum
Procedure, shortened: as §1

rice = experiment: Test B flooded paddy test; type: in vivo, Oryza sativa; conditions: 250 g ai/ha, Flood, 13 days, 0 to 100 scale (0 no effect, 100 complete control)
Procedure, shortened: (§2)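 Visual scores from 0 (no effect) to 100 (complete kill) were assigned 13 days after treatment by comparison with controls. Seedlings had been treated at two leaves by adding compound to floodwater standing 3 cm deep, kept at that level in the greenhouse.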

barnyardgrass = experiment: Test B flooded paddy test; type: in vivo, Echinochloa crus-galli; conditions: 250 g ai/ha, Flood, 13 days, 0 to 100 scale (0 no effect, 100 complete control)
Procedure, shortened: as §2

oat, wild [6] = experiment: Test A postemergence; type: in vivo, Avena fatua; conditions: postemergence, 10 days; for Plant response rating, Oat, Wild: 500 g ai/ha, visual injury, 0 to 100 scale (0 no effect, 100 complete control)
Procedure, shortened: as §1

foxtail, giant [7] = experiment: Test A preemergence; type: in vivo, Setaria faberi
Procedure, shortened: as §1

wheat [8] = experiment: Test A preemergence; type: in vivo, Triticum aestivum
Procedure, shortened: as §1

soybean [9] = experiment: Test A postemergence; type: in vivo, Glycine max; conditions: postemergence, 10 days; for Plant response rating, Soybean: 500 g ai/ha, visual injury, 0 to 100 scale (0 no effect, 100 complete control)
Procedure, shortened: as §1

corn [10] = experiment: Test A postemergence; type: in vivo, Zea mays; conditions: postemergence, 10 days; for Plant response rating, Corn: visual injury, 0 to 100 scale (0 no effect, 100 complete control)
Procedure, shortened: as §1

ducksalad = experiment: Test B flooded paddy test; type: in vivo, Heteranthera limosa; conditions: 250 g ai/ha, Flood, 13 days, 0 to 100 scale (0 no effect, 100 complete control)
Procedure, shortened: as §2

foxtail, giant [11] = experiment: Test A postemergence; type: in vivo, Setaria faberi; conditions: postemergence, 10 days; for Plant response rating, Foxtail, Giant: visual injury, 0 to 100 scale (0 no effect, 100 complete control)
Procedure, shortened: as §1

sedge, umbrella = experiment: Test B flooded paddy test; type: in vivo, Cyperus difformis; conditions: 250 g ai/ha, Flood, 13 days, 0 to 100 scale (0 no effect, 100 complete control)
Procedure, shortened: as §2

oat, wild [12] = experiment: Test A preemergence; type: in vivo, Avena fatua
Procedure, shortened: as §1

wheat [13] = experiment: Test A postemergence; type: in vivo, Triticum aestivum; conditions: postemergence, 10 days; for Plant response rating, Wheat: 500 g ai/ha, visual injury, 0 to 100 scale (0 no effect, 100 complete control)
Procedure, shortened: as §1

ragweed [14] = experiment: Test A preemergence; type: in vivo, Ambrosia artemisiifolia
Procedure, shortened: as §1

blackgrass [15] = experiment: Test A postemergence; type: in vivo, Alopecurus myosuroides
Procedure, shortened: as §1

horseweed = experiment: Test A postemergence; type: in vivo, Erigeron canadensis; conditions: postemergence, 10 days; for Plant response rating, Horseweed: visual injury, 0 to 100 scale (0 no effect, 100 complete control)
Procedure, shortened: as §1

pigweed, palmer [16] = experiment: Test A postemergence; type: in vivo, Amaranthus palmeri; conditions: postemergence, 10 days; for Plant response rating, Pigweed, Palmer: 500 g ai/ha, visual injury, 0 to 100 scale (0 no effect, 100 complete control)
Procedure, shortened: as §1

pigweed, palmer [17] = experiment: Test A preemergence; type: in vivo, Amaranthus palmeri
Procedure, shortened: as §1

blackgrass [18] = experiment: Test A preemergence; type: in vivo, Alopecurus myosuroides
Procedure, shortened: as §1

corn [19] = experiment: Test A preemergence; type: in vivo, Zea mays
Procedure, shortened: as §1

ryegrass, Italian [20] = experiment: Test A postemergence; type: in vivo, Lolium multiflorum; conditions: postemergence, 10 days; for Plant response rating, Ryegrass, Italian: 500 g ai/ha, visual injury, 0 to 100 scale (0 no effect, 100 complete control)
Procedure, shortened: as §1

kochia [21] = experiment: Test A postemergence; type: in vivo, Bassia scoparia; conditions: postemergence, 10 days; for Plant response rating, Kochia: visual injury, 0 to 100 scale (0 no effect, 100 complete control)
Procedure, shortened: as §1

ragweed [22] = experiment: Test A postemergence; type: in vivo, Ambrosia artemisiifolia; conditions: postemergence, 10 days; for Plant response rating, Ragweed: 500 g ai/ha, visual injury, 0 to 100 scale (0 no effect, 100 complete control)
Procedure, shortened: as §1

[23] = 125 g ai/ha, visual injury after 10 days, 0 to 100 scale, 0 is no effect, 100 is complete control
[24] = 500 g ai/ha, 0 to 100 scale (0 no effect, 100 complete control), 10 days
[25] = 125 g ai/ha, 0 to 100 scale, 0 no effect, 100 complete control

For `CCc1ccc(-n2cncn2)cc1C(=O)N1C[C@H](C)Oc2c(Cl)cccc21` [Compound 79], the “Plant response rating, Soybean” value (soybean [1]; [23]) was 60, the “Plant response rating, Soybean” value (soybean [1]; [24]) was 90 and the “Plant response rating, Goosegrass” value (goosegrass [2]; 125 g ai/ha) was 20. The “Plant response rating, Goosegrass” value (goosegrass [2]; 500 g ai/ha) was 80, the “Plant response rating, Kochia” value (kochia [3]; [23]) was 20 and the “Plant response rating, Kochia” value (kochia [3]; [24]) was 40. For the same molecule, the “Plant response rating, Goosegrass” value (goosegrass [4]; [23]) was 100, the “Plant response rating, Goosegrass” value (goosegrass [4]; [24]) was 100 and the “Plant response rating, Ryegrass, Italian” value (ryegrass, Italian [5]; [23]) was 60. For the same molecule, the “Plant response rating, Ryegrass, Italian” value (ryegrass, Italian [5]; [24]) was 100, the “Plant response rating, Rice” value (rice) was 0 and the “Plant response rating, Barnyardgrass” value (barnyardgrass) was 0. For the same molecule, the “Plant response rating, Oat, Wild” value (oat, wild [6]) was 80, the “Plant response rating, Foxtail, Giant” value (foxtail, giant [7]; [23]) was 100 and the “Plant response rating, Foxtail, Giant” value (foxtail, giant [7]; [24]) was 100. For the same molecule, the “Plant response rating, Wheat” value (wheat [8]; [23]) was 10, the “Plant response rating, Wheat” value (wheat [8]; [24]) was 50 and the “Plant response rating, Soybean” value (soybean [9]) was 100. The “Plant response rating, Corn” value (corn [10]; 125 g ai/ha) was 40, the “Plant response rating, Corn” value (corn [10]; 500 g ai/ha) was 80 and the “Plant response rating, Ducksalad” value (ducksalad) was 45. The “Plant response rating, Foxtail, Giant” value (foxtail, giant [11]; 125 g ai/ha) was 90, the “Plant response rating, Foxtail, Giant” value (foxtail, giant [11]; 500 g ai/ha) was 90 and the “Plant response rating, Sedge, Umbrella” value (sedge, umbrella) was 98. For the same molecule, the “Plant response rating, Oat, Wild” value (oat, wild [12]; [23]) was 90, the “Plant response rating, Oat, Wild” value (oat, wild [12]; [24]) was 80 and the “Plant response rating, Wheat” value (wheat [13]) was 50. The “Plant response rating, Ragweed” value (ragweed [14]; [23]) was 0, the “Plant response rating, Ragweed” value (ragweed [14]; [24]) was 30 and the “Plant response rating, Blackgrass” value (blackgrass [15]; 125 g ai/ha, postemergence, 10 days, visual injury, 0 to 100 scale (0 no effect, 100 complete control)) was 80. The “Plant response rating, Blackgrass” value (blackgrass [15]; 500 g ai/ha, Postemergence, 0 to 100 scale) was 80, the “Plant response rating, Horseweed” value (horseweed; 125 g ai/ha) was 0 and the “Plant response rating, Horseweed” value (horseweed; 500 g ai/ha) was 20. The “Plant response rating, Pigweed, Palmer” value (pigweed, palmer [16]) was 90, the “Plant response rating, Pigweed, Palmer” value (pigweed, palmer [17]; [23]) was 40 and the “Plant response rating, Pigweed, Palmer” value (pigweed, palmer [17]; [24]) was 100. For the same molecule, the “Plant response rating, Blackgrass” value (blackgrass [18]; [23]) was 50, the “Plant response rating, Blackgrass” value (blackgrass [18]; [24]) was 70 and the “Plant response rating, Corn” value (corn [19]; [23]) was 20. The “Plant response rating, Corn” value (corn [19]; [24]) was 40, the “Plant response rating, Ryegrass, Italian” value (ryegrass, Italian [20]) was 100 and the “Plant response rating, Kochia” value (kochia [21]; 125 g ai/ha) was 30. For the same molecule, the “Plant response rating, Kochia” value (kochia [21]; 500 g ai/ha) was 60 and the “Plant response rating, Ragweed” value (ragweed [22]) was 50.
With `Cc1cccc2c1O[C@@H](C)CN2C(=O)c1cccc(-n2cnc(C3CCCCC3)n2)c1` [Compound 82] the “Plant response rating, Soybean” value (soybean [1]; [23]) was 0, the “Plant response rating, Soybean” value (soybean [1]; [24]) was 0 and the “Goosegrass plant response rating” value (goosegrass [2]; [25]) was 0. The “Plant response rating, Goosegrass” value (goosegrass [2]; 500 g ai/ha) was 20, the “Plant response rating, Kochia” value (kochia [3]; [23]) was 0 and the “Plant response rating, Kochia” value (kochia [3]; [24]) was 0. The “Plant response rating, Goosegrass” value (goosegrass [4]; [23]) was 20, the “Plant response rating, Goosegrass” value (goosegrass [4]; [24]) was 90 and the “Plant response rating, Ryegrass, Italian” value (ryegrass, Italian [5]; [23]) was 60. The “Plant response rating, Ryegrass, Italian” value (ryegrass, Italian [5]; [24]) was 100, the “Plant response rating, Rice” value (rice) was 0 and the “Plant response rating, Barnyardgrass” value (barnyardgrass) was 0. The “Oat, Wild plant response rating” value (oat, wild [6]; [25]) was 0, the “Plant response rating, Oat, Wild” value (oat, wild [6]) was 0 and the “Plant response rating, Foxtail, Giant” value (foxtail, giant [7]; [23]) was 0. For the same molecule, the “Plant response rating, Foxtail, Giant” value (foxtail, giant [7]; [24]) was 20, the “Plant response rating, Wheat” value (wheat [8]; [23]) was 0 and the “Plant response rating, Wheat” value (wheat [8]; [24]) was 0. The “Soybean plant response rating” value (soybean [9]; [25]) was 90, the “Plant response rating, Soybean” value (soybean [9]) was 90 and the “Corn plant response rating” value (corn [10]; [25]) was 0. The “Plant response rating, Corn” value (corn [10]; 500 g ai/ha) was 10, the “Plant response rating, Ducksalad” value (ducksalad) was 0 and the “Foxtail, Giant plant response rating” value (foxtail, giant [11]; [25]) was 10. For the same molecule, the “Plant response rating, Foxtail, Giant” value (foxtail, giant [11]; 500 g ai/ha) was 10, the “Plant response rating, Sedge, Umbrella” value (sedge, umbrella) was 0 and the “Plant response rating, Oat, Wild” value (oat, wild [12]; [23]) was 10. The “Plant response rating, Oat, Wild” value (oat, wild [12]; [24]) was 20, the “Wheat plant response rating” value (wheat [13]; [25]) was 10 and the “Plant response rating, Wheat” value (wheat [13]) was 10. The “Plant response rating, Ragweed” value (ragweed [14]; [23]) was 0, the “Plant response rating, Ragweed” value (ragweed [14]; [24]) was 0 and the “Blackgrass plant response rating” value (blackgrass [15]; 125 g ai/ha, postemergence, 10 days, 0 to 100 scale, 0 no effect, 100 complete control) was 0. For the same molecule, the “Plant response rating, Blackgrass” value (blackgrass [15]; 500 g ai/ha, postemergence, 10 days, visual injury, 0 to 100 scale (0 no effect, 100 complete control)) was 10, the “Horseweed plant response rating” value (horseweed; [25]) was 0 and the “Plant response rating, Horseweed” value (horseweed; 500 g ai/ha) was 0. For the same molecule, the “Pigweed, Palmer plant response rating” value (pigweed, palmer [16]; [25]) was 0, the “Plant response rating, Pigweed, Palmer” value (pigweed, palmer [16]) was 50 and the “Plant response rating, Pigweed, Palmer” value (pigweed, palmer [17]; [23]) was 0. For the same molecule, the “Plant response rating, Pigweed, Palmer” value (pigweed, palmer [17]; [24]) was 40, the “Plant response rating, Blackgrass” value (blackgrass [18]; [23]) was 0 and the “Plant response rating, Blackgrass” value (blackgrass [18]; [24]) was 0. For the same molecule, the “Plant response rating, Corn” value (corn [19]; [23]) was 0, the “Plant response rating, Corn” value (corn [19]; [24]) was 10 and the “Ryegrass, Italian plant response rating” value (ryegrass, Italian [20]; [25]) was 0. For the same molecule, the “Plant response rating, Ryegrass, Italian” value (ryegrass, Italian [20]) was 30, the “Kochia plant response rating” value (kochia [21]; [25]) was 70 and the “Plant response rating, Kochia” value (kochia [21]; 500 g ai/ha) was 80. The “Ragweed plant response rating” value (ragweed [22]; [25]) was 0 and the “Plant response rating, Ragweed” value (ragweed [22]) was 50.
